The results in this text go back to patent US12378224B2 (Dong-A Socio Holdings Co., Ltd., priority 2016, dated 2025).

pIC50: −log10 of the molar value.

In general, pIC50 refers to −log10 of the IC50, conventionally taken in molar units. Read a high pIC50 as a small IC50.

Sequence of human MER (528-end) (Q12866 528-999 limits assumed): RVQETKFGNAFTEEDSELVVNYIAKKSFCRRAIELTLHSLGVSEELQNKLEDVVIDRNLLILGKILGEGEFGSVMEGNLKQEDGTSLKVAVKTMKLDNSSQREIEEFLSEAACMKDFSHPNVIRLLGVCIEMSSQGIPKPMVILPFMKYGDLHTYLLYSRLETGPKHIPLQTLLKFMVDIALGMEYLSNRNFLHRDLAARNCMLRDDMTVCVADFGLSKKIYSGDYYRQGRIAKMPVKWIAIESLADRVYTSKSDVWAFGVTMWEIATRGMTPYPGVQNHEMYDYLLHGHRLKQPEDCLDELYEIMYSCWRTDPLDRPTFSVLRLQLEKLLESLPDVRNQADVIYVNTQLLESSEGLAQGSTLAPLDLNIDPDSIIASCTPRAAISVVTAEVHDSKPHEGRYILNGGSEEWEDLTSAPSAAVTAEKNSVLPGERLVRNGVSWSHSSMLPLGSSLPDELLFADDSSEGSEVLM

This assay has as its target human MER (528-end) (Homo sapiens (Human), UniProt Q12866). Put plainly: HTRF Kinase Activity Biochemical Assay (KinEASE-TK). The following applies: 10 uM ATP. In outline:
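Recombinant human MER (528-end) phosphorylated biotin-TK peptide substrate, 1 h at room temperature. Reaction stopped with detection buffer containing 0.375 nM Eu3+-cryptate anti-TK antibody and 0.062 uM streptavidin-XL665, 1 h further. Activity taken as HTRF ratio 665/620 nm ×10,000, 340 nm excitation.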
Turning to `Cn1cc(-c2cnc(N)c(C(=O)N[C@@H]3CCN(C(=O)c4ccc(-c5ccc(C(=O)N6CCOCC6)cc5)cc4)C3)c2)cn1` [Example 493, (R)-2-amino-5-(1-methyl-1H-pyrazol-4-yl)-N-(1-(4′-(morpholine-4-carbonyl)-[1,1′-biphenyl]-4-carbonyl)pyrrolidin-3-yl)nicotinamide], the pIC50 is under 6.00.

Consider `Cn1cc(-c2cnc(N)c(C(=O)N[C@@H]3CCN(C(=O)c4ccc(-c5ccc(O)cc5)cc4)C3)c2)cn1` [Example 380, (R)-2-amino-N-(1-(4′-hydroxy-[1,1′-biphenyl]-4-carbonyl)pyrrolidin-3-yl)-5-(1-methyl-1H-pyrazol-4-yl)nicotinamide], for which the pIC50 is 6.00 to 7.00.

With `CC(=O)Nc1cccc(OC(=O)N2CC[C@@H](NC(=O)c3cc(-c4cnn(C)c4)cnc3N)C2)c1` [Example 76, 3-acetamidophenyl (R)-3-(2-amino-5-(1-methyl-1H-pyrazol-4-yl)nicotinamido)pyrrolidine-1-carboxylate], the negative logarithm of the IC50 (pIC50) was under 6.00.

`Cn1cc(-c2cnc(N)c(C(=O)N[C@@H]3CCN(C(=O)NC4CCC(OCc5ccccc5)C4)C3)c2)cn1` (stereo partly drawn) [Example 41, 2-amino-N-((3R)-1-((3-(benzyloxy)cyclopentyl)carbamoyl)pyrrolidin-3-yl)-5-(1-methyl-1H-pyrazol-4-yl)nicotinamide] showed a negative-log IC50 (pIC50) of under 6.00.

Turning to “(R)-2-amino-N-(1-(3,5-dihydroxy-2-naphthoyl)pyrrolidin-3-yl)-5-(1-methyl-1H-pyrazol-4-yl)nicotinamide [Example 668]”, the negative-log IC50 (pIC50) is under 6.00.

`CN1CCN(Cc2ccc(Oc3ccc(C(=O)N4CC[C@@H](NC(=O)c5cc(-c6cnn(C)c6)cnc5N)C4)cc3)cc2)CC1` [Example 448, (R)-2-amino-5-(1-methyl-1H-pyrazol-4-yl)-N-(1-(4-(4-((4-methylpiperazin-1-yl)methyl)phenoxy)benzoyl)pyrrolidin-3-yl)nicotinamide]: the pIC50 is under 6.00.

On to `CN1CCN(c2cc(-c3cccc(OC(=O)N4CC[C@@H](NC(=O)c5cc(-c6cnn(C)c6)cnc5N)C4)c3)ccn2)CC1` [Example 290, 3-(2-(4-methylpiperazin-1-yl)pyridin-4-yl)phenyl (R)-3-(2-amino-5-(1-methyl-1H-pyrazol-4-yl)nicotinamido)pyrrolidine-1-carboxylate], for which the pIC50 is under 6.00.

`Cn1cc(-c2cnc(N)c(C(=O)N[C@@H]3CCN(C(=O)Oc4cccc(-c5ccc(CO)cc5)c4)C3)c2)cn1` [Example 280, 4′-(hydroxymethyl)-[1,1′-biphenyl]-3-yl (R)-3-(2-amino-5-(1-methyl-1H-pyrazol-4-yl)nicotinamido)pyrrolidine-1-carboxylate] gave a pIC50 of 6.00 to 7.00.

Molecule `CCc1ccc(CN2CC[C@@H](NC(=O)c3cc(-c4cnn(C)c4)cnc3N)C2)cc1` [Example 211, (R)-2-amino-N-(1-(4-ethylbenzyl)pyrrolidin-3-yl)-5-(1-methyl-1H-pyrazol-4-yl)nicotinamide] showed a negative-log IC50 (pIC50) of under 6.00.

With `Cn1cc(-c2cnc(N)c(C(=O)N[C@@H]3CCN(C(=O)c4ccc(C#CCCO)cc4)C3)c2)cn1` [Example 553, (R)-2-amino-N-(1-(4-(4-hydroxybut-1-yn-1-yl)benzoyl)pyrrolidin-3-yl)-5-(1-methyl-1H-pyrazol-4-yl)nicotinamide], the negative-log IC50 (pIC50) was under 6.00.

Turning to `Cn1cc(-c2cnc(N)c(C(=O)N[C@@H]3CCN(C(=O)c4cc5ccccc5s4)C3)c2)cn1` [Example 406, (R)-2-amino-N-(1-(benzo[b]thiophene-2-carbonyl)pyrrolidin-3-yl)-5-(1-methyl-1H-pyrazol-4-yl)nicotinamide], the pIC50 was 6.00 to 7.00.

The molecule `CCc1ccc(OC(=O)N2CC[C@@H](NC(=O)c3cc(-c4cnn(C)c4)cnc3N)C2)cc1` [Example 93, 4-ethylphenyl (R)-3-(2-amino-5-(1-methyl-1H-pyrazol-4-yl)nicotinamido)pyrrolidine-1-carboxylate] gave a negative logarithm of the IC50 (pIC50) of 6.00 to 7.00.

`Cn1cc(-c2cnc(N)c(C(=O)N[C@@H]3CCN(C(=O)Nc4cccc(-c5cccc(CO)c5)c4)C3)c2)cn1` [Example 264, (R)-2-amino-N-(1-((3′-(hydroxymethyl)-[1,1′-biphenyl]-3-yl)carbamoyl)pyrrolidin-3-yl)-5-(1-methyl-1H-pyrazol-4-yl)nicotinamide] had a negative-log IC50 (pIC50) of 6.00 to 7.00.

Molecule `Cn1cc(-c2cnc(N)c(C(=O)N[C@@H]3CCN(C(=O)c4ccc(-c5ccnc(N6CCNCC6)c5)cc4)C3)c2)cn1` [Example 491, (R)-2-amino-5-(1-methyl-1H-pyrazol-4-yl)-N-(1-(4-(2-(piperazin-1-yl)pyridin-4-yl)benzoyl)pyrrolidin-3-yl)nicotinamide] showed a pIC50 of 6.00 to 7.00.

In the case of `Cn1cc(-c2cnc(N)c(C(=O)N[C@@H]3CCN(C(=O)N4CCc5c(N)cccc5C4)C3)c2)cn1` [Example 28, (R)-2-amino-N-(1-(5-amino-1,2,3,4-tetrahydroisoquinoline-2-carbonyl)pyrrolidin-3-yl)-5-(1-methyl-1H-pyrazol-4-yl)nicotinamide], the pIC50 is under 6.00.

Molecule `Cn1cc(-c2cnc(N)c(C(=O)N[C@@H]3CCN(C(=S)NCc4ccccc4)C3)c2)cn1` [Example 43, (R)-2-amino-N-(1-(benzylcarbamothioyl)pyrrolidin-3-yl)-5-(1-methyl-1H-pyrazol-4-yl)nicotinamide] had a negative-log IC50 (pIC50) of under 6.00.

In the case of `Cn1cc(-c2cnc(N)c(C(=O)N[C@@H]3CCN(C(=O)c4cccc5c(Br)cccc45)C3)c2)cn1` [Example 669, (R)-2-amino-N-(1-(5-bromo-1-naphthoyl)pyrrolidin-3-yl)-5-(1-methyl-1H-pyrazol-4-yl)nicotinamide], the pIC50 was under 6.00.

As for `Cn1cc(-c2cnc(N)c(C(=O)N[C@@H]3CCN(C(=O)Oc4ccc5c(c4)CCCC5)C3)c2)cn1` [Example 56, 5,6,7,8-tetrahydronaphthalen-2-yl (R)-3-(2-amino-5-(1-methyl-1H-pyrazol-4-yl)nicotinamido)pyrrolidine-1-carboxylate], the negative-log IC50 (pIC50) is 6.00 to 7.00.

As for `CN1CCN(Cc2cccc(-c3cccc(NC(=O)N4CC[C@@H](NC(=O)c5cc(-c6cnn(C)c6)cnc5N)C4)c3)c2)CC1` [Example 267, (R)-2-amino-5-(1-methyl-1H-pyrazol-4-yl)-N-(1-((3′-((4-methylpiperazin-1-yl)methyl)-[1,1′-biphenyl]-3-yl)carbamoyl)pyrrolidin-3-yl)nicotinamide], the negative-log IC50 (pIC50) was under 6.00.

As to `Cn1cc(-c2cnc(N)c(C(=O)N[C@@H]3CCN(C(=O)Oc4ccc(S(C)(=O)=O)cc4)C3)c2)cn1` [Example 77, 4-(methylsulfonyl)phenyl (R)-3-(2-amino-5-(1-methyl-1H-pyrazol-4-yl)nicotinamido)pyrrolidine-1-carboxylate], the negative logarithm of the IC50 (pIC50) was under 6.00.

Regarding `CS(=O)(=O)Nc1ccc(-c2cnc(N)c(C(=O)N[C@@H]3CCN(C(=O)c4ccc(-c5ccccc5Cl)cc4)C3)c2)cc1` [Example 576, (R)-2-amino-N-(1-(2′-chloro-[1,1′-biphenyl]-4-carbonyl)pyrrolidin-3-yl)-5-(4-(methylsulfonamido)phenyl)nicotinamide], the pIC50 was 6.00 to 7.00.

`CN1CCN(CCn2cc(-c3cccc(OC(=O)N4CC[C@@H](NC(=O)c5cc(-c6cnn(C)c6)cnc5N)C4)c3)cn2)CC1` [Example 288, 3-(1-(2-(4-methylpiperazin-1-yl)ethyl)-1H-pyrazol-4-yl)phenyl (R)-3-(2-amino-5-(1-methyl-1H-pyrazol-4-yl)nicotinamido)pyrrolidine-1-carboxylate] gave a negative logarithm of the IC50 (pIC50) of under 6.00.

Take `Cn1cc(-c2cnc(N)c(C(=O)N[C@@H]3CCN(C(=O)c4cc5ccccc5o4)C3)c2)cn1` [Example 401, (R)-2-amino-N-(1-(benzofuran-2-carbonyl)pyrrolidin-3-yl)-5-(1-methyl-1H-pyrazol-4-yl)nicotinamide]: the negative logarithm of the IC50 (pIC50) is under 6.00.

Take `CN(C)Cc1ccccc1OC(=O)N1CC[C@@H](NC(=O)c2cc(-c3cnn(C)c3)cnc2N)C1` [Example 78, 2-((dimethylamino)methyl)phenyl (R)-3-(2-amino-5-(1-methyl-1H-pyrazol-4-yl)nicotinamido)pyrrolidine-1-carboxylate]: the negative-log IC50 (pIC50) was under 6.00.

For the molecule `Cn1cc(-c2cnc(N)c(C(=O)N[C@@H]3CCN(C(=O)Oc4ccc5cc(O)ccc5c4)C3)c2)cn1` [Example 104, 6-hydroxynaphthalen-2-yl (R)-3-(2-amino-5-(1-methyl-1H-pyrazol-4-yl)nicotinamido)pyrrolidine-1-carboxylate], the pIC50 was 6.00 to 7.00.

On to `Cn1cc(-c2cnc(N)c(C(=O)N[C@@H]3CCN(C(=O)/C=C/c4ccc5c(c4)OCO5)C3)c2)cn1` [Example 425, (R,E)-2-amino-N-(1-(3-(benzo[d][1,3]dioxol-5-yl)acryloyl)pyrrolidin-3-yl)-5-(1-methyl-1H-pyrazol-4-yl)nicotinamide], for which the pIC50 is under 6.00.

As for `Cn1cc(-c2cnc(N)c(C(=O)N[C@@H]3CCN(Cc4ccc(F)c(-c5cccc(CO)c5)c4)C3)c2)cn1` [Example 250, (R)-2-amino-N-(1-((6-fluoro-3′-(hydroxymethyl)-[1,1′-biphenyl]-3-yl)methyl)pyrrolidin-3-yl)-5-(1-methyl-1H-pyrazol-4-yl)nicotinamide], the pIC50 is 6.00 to 7.00.

`Cn1cc(-c2cnc(N)c(C(=O)N[C@@H]3CCN(C(=O)c4ccc(-c5ccccc5O)cc4)C3)c2)cn1` [Example 375, (R)-2-amino-N-(1-(2′-hydroxy-[1,1′-biphenyl]-4-carbonyl)pyrrolidin-3-yl)-5-(1-methyl-1H-pyrazol-4-yl)nicotinamide] showed a pIC50 of 6.00 to 7.00.

Consider `CCc1cnc(N2CC[C@@H](NC(=O)c3cc(-c4cnn(C)c4)cnc3N)C2)nc1` [Example 136, (R)-2-amino-N-(1-(5-ethylpyrimidin-2-yl)pyrrolidin-3-yl)-5-(1-methyl-1H-pyrazol-4-yl)nicotinamide], for which the negative logarithm of the IC50 (pIC50) was under 6.00.

Take `Cn1cc(-c2cnc(N)c(C(=O)N[C@@H]3CCN(C(=O)c4cccc(-c5cc6ccccc6s5)c4)C3)c2)cn1` [Example 474, (R)-2-amino-N-(1-(3-(benzo[b]thiophen-2-yl)benzoyl)pyrrolidin-3-yl)-5-(1-methyl-1H-pyrazol-4-yl)nicotinamide]: the pIC50 is under 6.00.
